Data: patent US5545545A, “Lysine-insensitive maize dihydrodipicolinic acid synthase” (priority 1993, dated 1996)
Where two headings read alike, the source gives them in different places.

Experiments:
[1] = target: T1, wildtype E. coli DHPS from 71-18dapA+ (Escherichia coli, UniProt P0A6L2); assay: DHPS activity in crude lysate of wildtype 71-18dapA+ cells, with or without lysine; format: biochemical
T1 construct: Crude lysates from wildtype 71-18dapA; endogenous in cells; host or cells: E. coli 71-18 (dapA+), crude desalted lysate
Method: (§1) Crude lysates from wildtype 71-18dapA^+ cells, AT997dapA^- transformed with pUC13 lacking a cDNA insert, and the five complementing transformant cell lines AT997(pZM DHPS1) to AT997(pZM DHPS5) were assayed for DHPS activity. The transformed cells were grown overnight in M9 medium+100 μM DAP, collected by centrifugation at 5000×g for 10 min and resuspended in 1/10 volume of extraction buffer (100 mM TRIS-HCl, pH 8.0, 100 mM NaCl, 100 mM pyruvate). Cells were placed briefly on ice, disrupted by sonication (60 W, 15 s) and debris removed by centrifugation at 15000×g for 15 min. The supernatant was desalted on a G25 Sephadex column equilibrated with 10 mM TRIS-HCl, pH 8.0 and 1 mM EDTA and used for enzyme assays.
(§2) The DHPS assay buffer (R. M. Wallsgrove et al., Phytochem., 20, 2651 (1981)) contained 100 mM TRIS-HCl, pH 8.0, 10 mM pyruvate, 1.4 mM aspartate semialdehyde neutralized just prior to use, and 100 μl enzyme in a final volume of 250 μl. Tubes were incubated at 37° C. for 30 min and reactions stopped by addition of 1 ml of 0.22M sodium citrate, 0.55M sodium phosphate, pH 5.0 and 0.25 mg/ml-aminobenzaldehyde. The colored reaction product was allowed to form for 3 hr at 37° C. and samples were centrifuged at 10000 g. Activity units (0.001 OD/min) were determined at 520 nm; standard errors of replicate assays were routinely <2% of the mean.

[2] = tested on: maize DHPS (cDNA expression product in AT997dapA- transformants); assay: DHPS activity in crude lysates of AT997dapA- transformants pZM DHPS1 to pZM DHPS5, with or without lysine; format: biochemical; conditions: for % Inhibition: 100 μM lysine
Method: as §1, §2

[3] = target: T2, Purified DHPS from Black Mexican Sweet maize (Zea mays, UniProt P26259); assay: DHPS activity of purified maize DHPS, with or without lysine; format: biochemical
T2 construct: from tissue; host or cells: Black Mexican Sweet maize suspension cultures (endogenous enzyme, purified more than 4000-fold)
T2 sequence (P26259 55-380): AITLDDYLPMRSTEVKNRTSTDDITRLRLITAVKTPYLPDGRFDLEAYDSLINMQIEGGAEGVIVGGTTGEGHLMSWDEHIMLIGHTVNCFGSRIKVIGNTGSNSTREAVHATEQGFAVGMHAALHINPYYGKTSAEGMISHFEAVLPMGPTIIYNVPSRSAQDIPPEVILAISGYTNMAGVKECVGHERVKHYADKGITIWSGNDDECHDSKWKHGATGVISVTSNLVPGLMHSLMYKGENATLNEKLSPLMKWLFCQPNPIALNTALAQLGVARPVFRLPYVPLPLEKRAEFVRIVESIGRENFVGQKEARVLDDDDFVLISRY
Method: as §2
The putative start of the coding region for maize DHPS was established by comparison of the N-terminus amino acid sequence of SDS-PAGE purified DHPS monomer with the amino acid sequence derived from the nucleotide sequence. DHPS was purified more than 4000-fold with 25% recovery from Black Mexican Sweet maize suspension cultures by the procedure of D. A. Frisch et al., Plant Physiol., 96, 444 (1991). Only one protein band (ca. 130000 Mr) was detected by silver-staining after native polyacrylamide gel electrophoresis (PAGE) and this band corresponded to the position of DHPS activity. […]

[4] = target: T3, native Zea mays DHPS (Zea mays, UniProt P26259); assay: Lysine feedback inhibition of native maize DHPS in vitro; format: biochemical; conditions: native Zea mays DHPS / native plant DHP synthase, read-out: I50 of feedback inhibition by lysine
T3 construct: host or cells: maize cells (highly purified DHPS)
T3 sequence (P26259 55-380): T2 sequence (P26259 55-380)
Description: For example, novel plants resulting from the present method contain extractable lysine levels at least about ten times, and preferably, at least about 50 times, e.g., about 50-250 times higher than plants of the same species which contain only native DHPS.
This difference in lysine sensitivity was an additional indication that the cDNA inserts were from maize and that restoration of DHPS activity in the E. coli mutant was not caused by reversion of the dapA^- allele or due to an interaction with pUC13 plasmid DNA. In preliminary tests of partially purified DHPS from cell line pZM DHPS5, the [I]0.5 value for lysine was determined to be in the range of 20 to 30 μM.

[5] = tested on: wildtype maize DHPS (pZM DHPS5B) fusion protein expressed in AT997 E. coli; assay: Lysine inhibition of partially purified wildtype maize DHPS fusion protein (FIG. 4); format: biochemical
Method: (§3) AT997 cells (approximately 1 ml packed vol), containing plasmids pZM DHPS5B, pZM DHPS-M1 or pZM DHPS-M2, were extracted by sonication (60 W, 20 s) into 5 ml of ice cold buffer containing (100 mM TRIS-HCl, pH 8.0, 100 mM NaCl, 50 mM pyruvate) and then centrifuged at […] for 10 min. The supernatant was placed in a water bath (60° C.) for 5 min, cooled to 4° C. and centrifuged. The resulting supernatant was desalted on a Sephadex G50 column in 10 mM TRIS-HCl, pH 8.0, and 1 mM EDTA.
(§4) DHPS activity was determined as described in Example 2 except that the reaction was stopped after 2 min; at longer reaction times, activity was not linear with time. The volume of enzyme was adjusted so that the absorbance at 520 nm increased approximately 0.1 A (=100 activity units) after 2 min for standard control assays. Lysine concentrations were varied from 0.01 mM to 1.0 mM in the presence of constant concentrations of the substrates pyruvate (20 mM) and aspartate semialdehyde (1.4 mM). The average of two or three assays were used to determine enzyme activity values and percent inhibition by lysine.

[6] = target: T4, altered maize DHPS (pZM DHPS-M1) fusion protein expressed in AT997 E. coli (Zea mays, UniProt P26259, A166V/R367Q); assay: Lysine inhibition of partially purified mutant DHPS-M1 fusion protein (FIG. 4); format: biochemical
T4 construct: made in house; host or cells: E. coli AT997 dapA- (pZM DHPS-M1), heat-treated, desalted extract
Method: as §3, §4

[7] = target: T5, altered maize DHPS (pZM DHPS-M2) fusion protein expressed in AT997 E. coli (Zea mays, UniProt P26259); assay: Lysine inhibition of partially purified mutant DHPS-M2 fusion protein (FIG. 4); format: biochemical; conditions: L-lysine concentrations as high as 1.0 mM
T5 construct: heat-treated, desalted extract
Method: as §3, §4

[8] = target: T6, DHPS from wildtype, nontransformed E. coli strain DH5A (Escherichia coli, UniProt P0A6L2); assay: Lysine inhibition of DHPS from wildtype nontransformed E. coli (FIG. 4); format: biochemical; conditions: lysine concentrations up to 1 mM
T6 construct: DHPS from wildtype, nontransformed E. coli strain DH5A; endogenous in cells; host or cells: E. coli DH5A

[9] = target: T7, altered maize DHPS (pZM DHPS-M3, threonine for alanine at position 112) (Zea mays, UniProt P26259, A166T/R367Q); assay: Lysine sensitivity of DHPS activity of mutant pZM DHPS-M3; format: biochemical
T7 construct: the 380 amino acids of the maize cDNA coding region; beta-galactosidase N-terminal residues (5 aa) (N); vector polylinker (18 aa) (N); translated 5' untranslated region of the cDNA (13 aa) (N); made in house; host or cells: E. coli AT997 dapA- (inferred from the repeated mutagenesis and selection protocol)
Description: (§5) Additional independently derived mutations in maize DHPS were obtained by repeating the mutagenesis and selection protocol in separate experiments. […] Mutant plasmid pZM DHPS-M3 has a nucleotide change at position #496 (ACA instead of GCA); this change causes substitution of threonine for alanine at the same amino acid position (112) as altered in mutant pZM DHPS-M1. Mutant plasmid pZM DHPS-M4 has a nucleotide change at position #484 (AAA instead of GAA); this change causes substitution of lysine for glutamic acid at amino acid position #108.

[10] = target: T8, altered maize DHPS (pZM DHPS-M4, lysine for glutamic acid at position 108) (Zea mays, UniProt P26259, E162K/R367Q); assay: Lysine sensitivity of DHPS activity of mutant pZM DHPS-M4; format: biochemical
T8 construct: the 380 amino acids of the maize cDNA coding region; beta-galactosidase N-terminal residues (5 aa) (N); vector polylinker (18 aa) (N); translated 5' untranslated region of the cDNA (13 aa) (N); made in house; host or cells: E. coli AT997 dapA- (inferred from the repeated mutagenesis and selection protocol)
Description: as §5

[11] = target: T3, native Zea mays DHPS; conditions: highly purified DHPS from maize cells; Frisch et al., Plant Physiol., 96, 444 (1991); read-out: [I]0.5 value for lysine; cited from earlier work

T4 sequence (P26259 whole entry A166V/R367Q, the tested form may be a part): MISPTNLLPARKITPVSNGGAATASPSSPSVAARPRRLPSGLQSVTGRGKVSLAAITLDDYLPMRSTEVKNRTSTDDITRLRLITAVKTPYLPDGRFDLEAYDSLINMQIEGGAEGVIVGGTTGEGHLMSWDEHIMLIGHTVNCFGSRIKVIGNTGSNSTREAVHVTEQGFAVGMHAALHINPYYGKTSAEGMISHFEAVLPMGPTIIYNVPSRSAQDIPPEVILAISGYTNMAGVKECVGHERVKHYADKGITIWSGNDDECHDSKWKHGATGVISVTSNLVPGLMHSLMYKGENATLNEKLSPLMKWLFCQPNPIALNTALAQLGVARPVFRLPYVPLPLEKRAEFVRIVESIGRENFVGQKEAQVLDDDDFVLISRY
T1 sequence (P0A6L2 whole entry): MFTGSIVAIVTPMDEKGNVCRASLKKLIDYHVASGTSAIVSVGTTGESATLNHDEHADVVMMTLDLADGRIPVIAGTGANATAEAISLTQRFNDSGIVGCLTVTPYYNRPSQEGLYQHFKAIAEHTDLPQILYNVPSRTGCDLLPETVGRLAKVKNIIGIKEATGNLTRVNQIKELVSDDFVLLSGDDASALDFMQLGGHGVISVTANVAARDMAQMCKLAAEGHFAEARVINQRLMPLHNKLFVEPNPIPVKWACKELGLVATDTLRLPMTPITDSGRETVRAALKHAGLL
T5 sequence (P26259 whole entry, the tested form may be a part): as the sequence (P26259 whole entry A166V/R367Q, the tested form may be a part) above, with V166A, Q367R counted along it
T7 sequence (P26259 whole entry A166T/R367Q): as the sequence (P26259 whole entry A166V/R367Q, the tested form may be a part) above, with V166T counted along it
T6 sequence (P0A6L2 whole entry): as the sequence (P0A6L2 whole entry) above
T8 sequence (P26259 whole entry E162K/R367Q): as the sequence (P26259 whole entry A166V/R367Q, the tested form may be a part) above, with E162K, V166A counted along it

## NCCCC[C@H](N)C(=O)O [lysine, L-lysine]
[1]; 71-18dapA+ crude lysate
  Specific Activity, 100 μM Lysine: 120 0.001 OD520 /min per milligram
[1]; 71-18dapA+, 100 μM lysine
  inhibition at 100 µM: 8%
[2]; AT997dapA- (pZM DHPS1)
  Specific Activity, 100 μM Lysine: 24 0.001 OD520 /min per milligram
  % Inhibition: 90%
[2]; AT997dapA- (pZM DHPS2)
  Specific Activity, 100 μM Lysine: 15 0.001 OD520 /min per milligram
  % Inhibition: 91%
[2]; AT997dapA- (pZM DHPS3)
  Specific Activity, 100 μM Lysine: 22 0.001 OD520 /min per milligram
  % Inhibition: 88%
[2]; AT997dapA- (pZM DHPS4)
  Specific Activity, 100 μM Lysine: 42 0.001 OD520 /min per milligram
  % Inhibition: 86%
[2]; AT997dapA- (pZM DHPS5)
  Specific Activity, 100 μM Lysine: 27 0.001 OD520 /min per milligram
  % Inhibition: 90%
[3]; 100 μM lysine
  inhibition at 100 µM: 97%
[3]; specific activity not determined (footnote b)
  DHPS activity, 100 μM Lysine: 8 units of DHPS activity
[4]
  IC50: 25 µM
[5]; 100 μM lysine, E. coli transformants
  inhibition of wildtype maize DHPS activity: more than 90%
[5]; pZM DHPS5B, lysine concentrations as low as 25 μM
  inhibition of DHPS activity by lysine: significantly inhibited
[6]; DHPS expressed from SEQ ID NO. 1 in E. coli transformants, 1000 μM lysine
  inhibition of DHPS activity by lysine: not inhibited
[6]; altered Zea mays DHPS of SEQ ID NO. 2
  reduction in sensitivity to lysine versus native Zea mays DHPS: more than 400 times
[6]; altered maize DHPS of the invention, in vitro
  L-lysine level at which altered DHPS is active, relative to native DHPS: at least 100 fold
[6]; pZM DHPS-M1, L-lysine concentrations as high as 1.0 mM
  inhibition of DHPS activity by L-lysine: not inhibited
[7]
  inhibition of DHPS activity by L-lysine: not inhibited
[8]
  inhibition of DHPS activity by lysine: intermediate level of inhibition
[9]
  lysine sensitivity of DHPS activity: lysine insensitivity
[10]
  lysine sensitivity of DHPS activity: lysine insensitivity
[11]
  IC50: 23 µM
